A short description of data set [1]: Glutathione reactivity assessed as half life.
For data set [2], the target named is Induced myeloid leukemia cell differentiation protein Mcl-1 (Homo sapiens, UniProt Q07820). As to the kind of experiment: Binding affinity to MCL-1 (unknown origin) assessed as inhibition constant by time-resolved fluorescence resonance energy transfer binding affinity assays.
The next data set deals with MV4-11. As to the kind of experiment: Antiproliferative activity against human MV4-11 cells expressing high BCL-2 assessed as cell viability measured after 72 hrs by Cell Counting Kit-8 assay. To be noted: MV4-11, 72 h. For orientation: Formazan colour is commonly taken as a measure of viable cells.
The next data set deals with Pfeiffer. As to the kind of experiment: Antiproliferative activity against human Pfeiffer cells expressing high BCL-2/BFL-1 assessed as cell viability measured after 72 hrs by Cell Counting Kit-8 assay.
Data set [3] concerns the target Induced myeloid leukemia cell differentiation protein Mcl-1/BH3-interacting domain death agonist (Homo sapiens, UniProt Q07820).
Description: Inhibition of MCL-1 (unknown origin)/FAM-BID (unknown origin) interaction measured by fluorescence polarization assay
In data set [4] the target is Bcl-2-related protein A1 (Homo sapiens, UniProt Q16548, C55A). As to the kind of experiment: Binding affinity to BFL-1 C55A mutant (unknown origin) assessed as inhibition constant by fluorescence polarization assay. (In general: Polarisation of emitted light reports the rotation of a fluorescent probe.)
Sequence of Bcl-2-related protein A1 (Homo sapiens, UniProt Q16548, C55A) (Q16548 whole entry C55A): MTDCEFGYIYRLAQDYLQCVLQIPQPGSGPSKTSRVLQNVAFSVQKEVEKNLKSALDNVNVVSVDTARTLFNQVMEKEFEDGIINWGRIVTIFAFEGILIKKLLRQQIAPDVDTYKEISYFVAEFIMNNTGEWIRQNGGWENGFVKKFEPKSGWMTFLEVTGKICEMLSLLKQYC
Data set [5] deals with T1, Bcl-2-related protein A1 (Homo sapiens, UniProt Q16548).
T1 sequence (Q16548 whole entry): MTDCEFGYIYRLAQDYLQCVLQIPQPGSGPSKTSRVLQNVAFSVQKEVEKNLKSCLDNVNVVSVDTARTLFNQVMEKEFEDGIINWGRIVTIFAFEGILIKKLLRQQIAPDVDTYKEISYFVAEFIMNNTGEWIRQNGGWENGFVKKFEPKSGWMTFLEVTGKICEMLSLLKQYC
As to the kind of experiment: Binding affinity to wild type human BFL-1 assessed as inhibition constant by SPR assay. A general note: SPR reads the build-up and loss of mass on a sensor chip optically.

The target of another data set is T2, BCL2A1/BID (Homo sapiens, UniProt Q16548).
T2 sequence (Q16548 whole entry): T1 sequence (Q16548 whole entry)
T2 sequence (P55957 whole entry): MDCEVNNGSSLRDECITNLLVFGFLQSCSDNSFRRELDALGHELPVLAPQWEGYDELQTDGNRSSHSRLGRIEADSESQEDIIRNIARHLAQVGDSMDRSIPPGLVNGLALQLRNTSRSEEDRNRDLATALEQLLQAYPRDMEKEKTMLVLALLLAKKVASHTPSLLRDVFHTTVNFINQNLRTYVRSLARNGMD

Sequence of Induced myeloid leukemia cell differentiation protein Mcl-1/BH3-interacting domain death agonist (Q07820 whole entry, one chain of several, the tested form may be a part): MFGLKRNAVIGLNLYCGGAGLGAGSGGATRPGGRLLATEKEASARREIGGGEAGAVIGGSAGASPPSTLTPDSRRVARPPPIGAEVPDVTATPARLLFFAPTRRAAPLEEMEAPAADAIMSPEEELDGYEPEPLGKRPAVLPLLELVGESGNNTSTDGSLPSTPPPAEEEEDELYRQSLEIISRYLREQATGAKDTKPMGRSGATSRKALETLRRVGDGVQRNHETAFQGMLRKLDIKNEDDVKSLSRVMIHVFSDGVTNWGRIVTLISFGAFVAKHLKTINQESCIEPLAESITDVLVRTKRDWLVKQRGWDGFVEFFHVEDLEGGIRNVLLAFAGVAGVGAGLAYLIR
Sequence of Induced myeloid leukemia cell differentiation protein Mcl-1 (Q07820 whole entry): as the sequence (Q07820 whole entry, one chain of several, the tested form may be a part) above

What is called half-life is the time needed for the level to fall by half in the phase considered. With `C=CC(=O)Nc1cc(Nc2nccc(-c3cn(C)c4ccccc34)n2)c(OC)cc1N(C)CCN(C)C` [OSIMERTINIB], in data set [1], the half-life was 30.6 min.
What is called Ki is the equilibrium dissociation constant of an inhibitor or competing ligand from its target. In general, IC50 refers to the midpoint of a concentration-inhibition curve. Consider `CC1(C)CCC(CN2CCN(c3ccc(C(=O)NS(=O)(=O)c4ccc(NCC5CCOCC5)c([N+](=O)[O-])c4)c(Oc4cnc5[nH]ccc5c4)c3)CC2)=C(c2ccc(Cl)cc2)C1` [VENETOCLAX], for which the Ki was greater than 444 nM in data set [2] and 3750 nM in data set [3]. In addition, the IC50 in the data set with MV4-11 stood at 0.44 µM; with Pfeiffer, 6.26 µM.
Regarding `C=CC(=O)Nc1ccc2c(c1)CCC(CN1CCN(c3ccc(C(=O)O)c(Oc4cnc5[nH]ccc5c4)c3)CC1)=C2c1ccc(Cl)cc1CC`, the half-life in data set [1] is 256 min. Further, the Ki turned out to be 1380 nM on Bcl-2-related protein A1 [4], 1950 nM on Bcl-2-related protein A1 [5], 105 nM at BCL2A1/BID and 1260 nM in data set [3]. The figures for the IC50 with MV4-11 and with Pfeiffer were 12.6 µM and 6.92 µM, respectively.

These data come from ChEMBL document CHEMBL5500414 (J Med Chem, 2024).
